Reference: patent US10039729B2, “Use of kukoamine A and kukoamine B” (Tianjin Chase Sun Pharmaceutical Co., Ltd., priority 2010, dated 2018)

Key:
[1] = tested on: RAW264.7 cells; assay: Semi-quantitative RT-PCR of TLR4, TLR9, MyD88 and western blot of NF-κB p65 in RAW264.7 cells; format: cell-based, murine; settings: KB 200 μM
Method: Reaction mixtures were added into 0.2 ml PCR tubes. The reaction mixture included 1 μl cDNA, 10.0 μl 2×Taq Master Mix, 1 μl upstream primer (10 μM), 1 μl downstream primer (10 μM) and 7 μl RNase-free H2O. PCR programs are as follows:
Finally, the PCR products were detected by agarose gel electrophoresis; 1% agarose gel was prepared and cast; 5 μl PCR products of each tube were loaded, electrophoresed at 100 v for 30 min; then gel was took out and scanned; the images were analysed by Quantity One software.
(2) Inhibition of KB on activation of NF-κB p65 in RAW264.7 cells induced by LPS and CpG DNA: Methods are as above; nucleoprotein extraction continued to be incubated for 1 h after sample loading; then, NF-κB p65 in it was assayed using westernblot; the procedure of nucleoprotein extraction and westernblot were consistent with embodiment 23.

[2] = tested on: murine peritoneal macrophages; assay: Vitality of murine peritoneal macrophages (MTT method); format: cell-based; settings: KB or KB plus LPS or CpG DNA; 24 h
Method: (2) Influence on vitality of murine peritoneal macrophages: Experiment methods are as above. Influences of the combination of KB with LPS or CpG DNA on vitality of murine peritoneal macrophages were assayed.

[3] = tested on: RAW264.7 cells; assay: mRNA expression in RAW264.7 cells stimulated by LPS and CpG DNA (real-time PCR); format: cell-based, murine
Method: Cells preparation: Cells suspension was adjusted to 1×10^6/ml in DMEM supplemented with 10% (v/v) NCS; 2 ml of the above suspension was added into 6-well plates and cultured at 37° C. in a 5% CO2 humidified incubator for 2 h; for the purpose of experiment four groups were established: medium group, KB control group, stimulation group and KB treatment group; no reagent was added in medium group; KB control group was added with KB (200 μM); stimulation group was added with LPS (100 ng/ml) and CpG DNA (10 μg/ml); KB treatment group was added with KB (concentrations of 100 and 200 μM) in the meantime of adding LPS and CpG DNA; cells were cultured for 4 h and collected.
RNA extraction: Supernatant was sucked and discarded; 1 ml tripure was added into each well and resuspended with a pipet to make cells completely lysed; the lysate was transferred into 1.5 ml EP tube and incubated at room temperature for 5 min to ensure completed separation of ribonucleoprotein complex; 0.2 ml chloroform was added into EP tube; tube cap was closed and mixed by inversion for 15 sec; EP tube was incubated at room temperature for 10 min until layering of the liquid in tube, then centrifuged at 12000 g at 4_for 15 min; solution was separated into the three-phase; the upper solution (colorless liquid, approximately 0.4 ml) in EP tube was transferred into a new EP tube (DEPC treated); 0.5 ml isopropyl alcohol was added into EP tubes and the liquid was mixed by inversion for several times; EP tube was incubated at room temperature for 10 min to promote RNA precipitating, and centrifuged at 12000 g at 4_for 10 min; the supernatant was discarded; RNA precipitate was added with 1 ml 75% ethanol, vortex washed, and centrifuged at 12000 g at 4 for 10 min; then the supernatant was discarded; EP tube was dried at room temperature for 15 min to remove excessive ethanol; RNA precipitate was diluted with 20 μl ddH2O treated with DEPC, resuspended by pipetting in and out several times, incubated at 55 to 60 for 10 min, and then stored at −70.
Reverse transcription: Reverse-transcription reaction mixture (include: Rnase-free H2O, 10 μl; 5×RT buffer, 4 μl; dNTP mixture, 2 μl; RNase inhibitor, 1 μl; Oligo(dT)20, 1 μl; RNA, 1 μl; ReverTra Ace, 1 μl) was prepared on ice bath, mixed, incubated at 42° C. for 1 h and at 99° C. for 5 min, stored at −20.
PCR amplification: Primers were designed using Primer Premier 5 software by ourselves, and synthesized by Shanghai Sangon Biological Engineering Technology & Services Co., Ltd. The relevant primer sequences are as follows […]
Results were expressed as CT value, and converted into ratio of β-actin, the internal reference items, according to 2^−ΔΔCT methods. […]

NCCCN(CCCCNCCCNC(=O)CCc1ccc(O)c(O)c1)C(=O)CCc1ccc(O)c(O)c1 [KB, Kukoamine B]
up-regulated expression of TLR4, TLR9 and MyD88 stimulated by LPS and CpG DNA ([1]; 4 h, semi-quantitative RT-PCR): inhibited up-regulated expression
up-regulation of NF-κB p65 in RAW264.7 cell nucleus induced by LPS and CpG DNA ([1]; LPS 100 ng/ml, CpG DNA 10 μg/ml, western blot): inhibit the up-regulation of NF-κB p65
vitality of murine peritoneal macrophages [2]: The same result was also obtained
mRNA expressions of TNF-α, IL-6, iNOS and COX-2 up-regulated by CpG DNA ([3]; 100, 200 μM, CpG DNA 10 μg/ml, 4 h, dose-dependent): significantly inhibit the mRNA expressions
mRNA expressions of TNF-α, IL-6, iNOS and COX-2 up-regulated by LPS ([3]; 100, 200 μM, LPS 100 ng/ml, 4 h, dose-dependent): significantly inhibit the mRNA expressions
up-regulated expression of TLR4 induced by LPS and CpG DNA ([3]; KB 100 and 200 μM, RT-PCR): significantly inhibited
up-regulated expression of TLR9 induced by LPS and CpG DNA ([3]; KB 100 and 200 μM, RT-PCR): significantly inhibited
